From ChEMBL document CHEMBL4184238, “Synthesis and biological evaluation of a series of novel pyridinecarboxamides as potential multi-receptor antipsychotic drugs” (Bioorg Med Chem Lett, 2018)
The source made the active and inactive calls. The calls are words filed in the database; no cut-off is given here.

Columns and labels:
[1] = target: D(2) dopamine receptor (Homo sapiens, UniProt P14416); assay: Antagonistic activity at human dopamine D2 receptor measured after 60 mins by Lance Ultra cAMP assay; type: functional
Chain of D(2) dopamine receptor (P14416 whole entry): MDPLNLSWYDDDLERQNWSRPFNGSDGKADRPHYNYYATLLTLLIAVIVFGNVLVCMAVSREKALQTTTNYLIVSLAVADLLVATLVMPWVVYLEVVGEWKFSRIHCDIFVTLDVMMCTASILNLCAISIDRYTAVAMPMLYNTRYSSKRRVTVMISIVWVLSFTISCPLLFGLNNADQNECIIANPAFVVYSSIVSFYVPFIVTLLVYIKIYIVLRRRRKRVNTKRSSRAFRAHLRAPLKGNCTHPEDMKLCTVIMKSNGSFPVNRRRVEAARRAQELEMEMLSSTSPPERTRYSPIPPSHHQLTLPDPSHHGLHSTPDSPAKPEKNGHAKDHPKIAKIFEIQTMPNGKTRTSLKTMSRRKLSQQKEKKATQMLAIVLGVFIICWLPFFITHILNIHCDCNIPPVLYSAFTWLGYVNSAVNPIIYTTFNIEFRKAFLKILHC

[2] = target: 5-hydroxytryptamine receptor 2A (Homo sapiens, UniProt P28223); assay: Antagonistic activity at human 5-HT2A receptor assessed as calcium flux after 10 mins by FLIPR assay; type: functional
Chain of 5-hydroxytryptamine receptor 2A (P28223 whole entry): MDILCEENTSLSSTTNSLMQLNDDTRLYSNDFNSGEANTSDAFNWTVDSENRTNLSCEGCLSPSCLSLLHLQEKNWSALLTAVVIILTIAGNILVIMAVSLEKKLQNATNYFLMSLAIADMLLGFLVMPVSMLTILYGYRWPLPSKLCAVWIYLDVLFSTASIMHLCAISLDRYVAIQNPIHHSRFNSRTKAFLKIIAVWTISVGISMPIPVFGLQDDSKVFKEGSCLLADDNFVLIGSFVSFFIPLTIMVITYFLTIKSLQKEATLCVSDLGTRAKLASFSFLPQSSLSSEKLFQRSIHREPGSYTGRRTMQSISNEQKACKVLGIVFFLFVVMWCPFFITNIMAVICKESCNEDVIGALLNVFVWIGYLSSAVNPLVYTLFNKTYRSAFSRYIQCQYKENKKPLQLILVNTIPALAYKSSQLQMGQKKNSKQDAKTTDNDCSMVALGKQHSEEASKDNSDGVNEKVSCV

[3] = target: T1, 5-hydroxytryptamine receptor 1A (Homo sapiens, UniProt P08908); assay: Agonistic activity at human 5-HT1A receptor measured after 60 mins by Ultra Lance cAMP assay; type: functional
T1 sequence (P08908 whole entry): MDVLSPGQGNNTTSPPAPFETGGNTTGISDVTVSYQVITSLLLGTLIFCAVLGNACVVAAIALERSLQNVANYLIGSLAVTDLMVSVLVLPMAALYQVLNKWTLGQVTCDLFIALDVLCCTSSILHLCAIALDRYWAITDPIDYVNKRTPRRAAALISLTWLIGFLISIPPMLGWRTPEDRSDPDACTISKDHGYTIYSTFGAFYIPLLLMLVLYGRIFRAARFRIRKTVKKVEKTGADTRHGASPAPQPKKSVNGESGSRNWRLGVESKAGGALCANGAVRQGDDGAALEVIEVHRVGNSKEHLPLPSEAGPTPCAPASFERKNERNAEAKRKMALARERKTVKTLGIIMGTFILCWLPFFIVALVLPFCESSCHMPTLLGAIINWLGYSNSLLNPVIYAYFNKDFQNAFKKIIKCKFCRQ

[4] = target: T2, Alpha-1A adrenergic receptor (Homo sapiens, UniProt P35348); assay: Antagonistic activity at alpha-1A adrenergic receptor (unknown origin) after 10 mins by FLIPR assay; type: functional
T2 sequence (P35348 whole entry): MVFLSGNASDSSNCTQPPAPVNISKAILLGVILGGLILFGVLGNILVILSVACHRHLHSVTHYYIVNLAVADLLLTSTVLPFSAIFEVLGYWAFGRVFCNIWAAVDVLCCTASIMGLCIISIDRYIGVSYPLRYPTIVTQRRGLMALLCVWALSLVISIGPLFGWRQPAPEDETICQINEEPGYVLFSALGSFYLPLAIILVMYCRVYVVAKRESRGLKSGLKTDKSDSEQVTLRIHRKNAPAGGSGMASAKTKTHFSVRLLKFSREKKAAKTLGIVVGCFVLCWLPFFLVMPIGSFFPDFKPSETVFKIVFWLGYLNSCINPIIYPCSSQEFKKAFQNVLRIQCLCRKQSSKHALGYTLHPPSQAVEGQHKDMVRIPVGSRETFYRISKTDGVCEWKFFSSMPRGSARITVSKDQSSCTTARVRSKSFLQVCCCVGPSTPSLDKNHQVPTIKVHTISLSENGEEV

[5] = target: Histamine H1 receptor (Homo sapiens, UniProt P35367); assay: Antagonistic activity at histamine 1 receptor (unknown origin) after 10 mins by FLIPR assay; type: functional
Chain of Histamine H1 receptor (P35367 whole entry): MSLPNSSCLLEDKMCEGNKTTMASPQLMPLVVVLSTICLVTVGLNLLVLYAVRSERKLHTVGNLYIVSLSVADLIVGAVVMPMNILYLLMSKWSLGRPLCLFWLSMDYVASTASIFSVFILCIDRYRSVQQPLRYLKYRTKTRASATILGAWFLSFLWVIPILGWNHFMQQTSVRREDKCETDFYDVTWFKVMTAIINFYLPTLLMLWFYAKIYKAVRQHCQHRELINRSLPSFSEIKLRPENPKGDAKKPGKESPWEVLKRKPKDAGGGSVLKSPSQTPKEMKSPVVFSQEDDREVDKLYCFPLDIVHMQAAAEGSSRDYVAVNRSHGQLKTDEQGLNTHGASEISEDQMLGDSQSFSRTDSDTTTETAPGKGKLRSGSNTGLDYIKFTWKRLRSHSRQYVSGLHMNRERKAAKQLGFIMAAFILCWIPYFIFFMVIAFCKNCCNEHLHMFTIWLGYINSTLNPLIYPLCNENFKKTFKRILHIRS

[6] = system: Mus musculus; assay: Antipsychotic-like activity in ICR mouse assessed as inhibition of PCP-induced hyperlocomotion at 0.3 to 3 mg/kg, ig followed by animal habituation for 10 mins before 60 mins measurement period; type: functional, organism-based
[7] = target: T3, 5-hydroxytryptamine receptor 2C (Homo sapiens, UniProt P28335); assay: Antagonistic activity at 5-HT2c receptor (unknown origin) after 10 mins by FLIPR assay; type: functional
T3 sequence (P28335 whole entry): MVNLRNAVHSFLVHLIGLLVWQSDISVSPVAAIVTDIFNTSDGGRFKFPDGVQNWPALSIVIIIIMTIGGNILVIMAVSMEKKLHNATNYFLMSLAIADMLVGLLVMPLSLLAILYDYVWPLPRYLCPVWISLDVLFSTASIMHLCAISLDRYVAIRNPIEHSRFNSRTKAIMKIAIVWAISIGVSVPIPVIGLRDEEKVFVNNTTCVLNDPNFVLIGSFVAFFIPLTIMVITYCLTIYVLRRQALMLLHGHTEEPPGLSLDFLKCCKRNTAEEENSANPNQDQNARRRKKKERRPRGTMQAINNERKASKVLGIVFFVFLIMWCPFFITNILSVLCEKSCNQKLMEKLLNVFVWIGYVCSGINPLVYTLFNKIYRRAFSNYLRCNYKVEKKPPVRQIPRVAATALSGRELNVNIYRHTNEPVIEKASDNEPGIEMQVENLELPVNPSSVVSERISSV

[8] = system: Mus musculus; assay: Antipsychotic-like activity in ICR mouse assessed as inhibition of PCP-induced hyperlocomotion at 3 mg/kg, ig followed by animal habituation for 10 mins before 60 mins measurement period; type: functional, organism-based
[9] = Stability in human liver microsomes assessed as parent compound remaining level at 2 uM in presence of NADPH incubated for 30 mins by LC-MS/MS method; type: ADME, microsome; conditions: read-out: Stability

Compound | IC50 [1] [nM] | IC50 [2] [nM] | EC50 [3] [nM] | IC50 [4] [nM] | IC50 [5] [nM] | IC50 [7] [nM] | remaining at 0.5 h, 2 µM [9] [%] | Activity [6] | Activity [8]
CNC(=O)c1cc(OCCCCN2CCC(c3noc4cc(F)ccc34)CC2)ccn1 | 59.8 | 247 | 9 | 11 | 4420 | 63 | 98 | – | –
CNC(=O)c1cncc(OCCCCN2CCC(c3noc4cc(F)ccc34)CC2)c1 | 123 | 83.2 | > 100000 | – | – | – | – | – | –
O=C1CCc2ccc(OCCCCN3CCN(c4cccc(Cl)c4Cl)CC3)cc2N1 | – | – | – | – | – | – | – | – | Active
O=C(NC1CC1)c1cc(OCCCCN2CCN(c3nsc4ccccc34)CC2)ccn1 | 65.2 | 324 | 6.2 | – | – | – | – | – | –
CCNC(=O)c1ccnc(OCCCCN2CCC(c3noc4cc(F)ccc34)CC2)c1 | 65.5 | 67.5 | > 100000 | – | – | – | – | – | –
CNC(=O)c1cccc(OCCCCN2CCN(c3ccc4ccsc4c3)CC2)n1 | 412 | 1280 | 117 | – | – | – | – | – | –
CNC(=O)c1cccc(OCCCCN2CCN(c3cccc4sccc34)CC2)n1 | 86.1 | 106 | 11.3 | – | – | – | – | – | –
O=C(NC1CC1)c1cc(OCCCCN2CCC(c3noc4cc(F)ccc34)CC2)ccn1 | 53.5 | 167 | 28.1 | – | – | – | – | – | –
CNC(=O)c1cccc(OCCCCN2CCC(c3noc4cc(F)ccc34)CC2)c1 | – | – | – | – | – | – | 97 | – | –
CNC(=O)c1cccc(OCCCCN2CCN(c3nsc4ccccc34)CC2)c1 | – | – | – | – | – | – | 25 | – | –
CCNC(=O)c1cncc(OCCCCN2CCC(c3noc4cc(F)ccc34)CC2)c1 | 59 | 94.2 | > 100000 | – | – | – | – | – | –
CNC(=O)c1ccnc(OCCCCN2CCC(c3noc4cc(F)ccc34)CC2)c1 | 299 | 62.4 | > 100000 | – | – | – | – | – | –

Second part, led by results:

IC50 [1] [nM] | IC50 [2] [nM] | EC50 [3] [nM] | IC50 [4] [nM] | IC50 [5] [nM] | IC50 [7] [nM] | remaining at 0.5 h, 2 µM [9] [%] | Compound | Activity [6] | Activity [8]
8 | 64.9 | 0.7 | – | – | – | – | CNC(=O)c1cc(OCCCCN2CCN(c3cccc4sc(F)cc34)CC2)ccn1 | – | –
24 | 154 | 1.2 | 164 | 418 | 346 | 65 | CNC(=O)c1cc(OCCCCN2CCN(c3cccc4sccc34)CC2)ccn1 | Dose-dependent effect | Active
26.5 | 476 | 0.9 | – | – | – | – | CNC(=O)c1cc(OCCCCN2CCN(c3cccc(Cl)c3Cl)CC2)ccn1 | – | –
42.5 | 89.9 | > 100000 | – | – | – | – | O=C(NC1CC1)c1cncc(OCCCCN2CCC(c3noc4cc(F)ccc34)CC2)c1 | – | –
37.6 | 95.5 | 17.6 | – | – | – | – | CCNC(=O)c1cc(OCCCCN2CCC(c3noc4cc(F)ccc34)CC2)ccn1 | – | –
51.1 | 910 | 23.6 | – | – | – | – | CNC(=O)c1cccc(OCCCCN2CCN(c3cccc(Cl)c3Cl)CC2)n1 | – | –
51.7 | 53.9 | > 100000 | – | – | – | – | O=C(NC1CC1)c1ccnc(OCCCCN2CCC(c3noc4cc(F)ccc34)CC2)c1 | – | –
9.3 | 134 | > 100000 | – | – | – | – | CNC(=O)c1cccc(OCCCCN2CCC(c3noc4cc(F)ccc34)CC2)n1 | – | –
42.6 | 523 | 16.5 | – | – | – | – | NC(=O)c1cc(OCCCCN2CCN(c3nsc4ccccc34)CC2)ccn1 | – | –
11.4 | 113 | 2.2 | 71 | 923 | 70 | 65 | CNC(=O)c1cc(OCCCCN2CCN(c3nsc4ccccc34)CC2)ccn1 | – | –
